Organism: Rattus norvegicus
Experiment: Open TG-GATES - Regimen: Single
Type: toxicity, organism-based, Sprague-Dawley
Set-up: regimen Single, gender Male, age 6 weeks
Conditions: in vivo, po, 0 mg/kg, route gavage, dose level Control; for APTT / Bas / Eos / Fbg / Hb / Ht / Lym / MCH / MCHC / MCV / Mono / Neu / PT / Plat / RBC / Ret / WBC: tissue Blood; for KIDNEY_L / KIDNEY_R / KIDNEY_TOTAL: tissue Kidney; for LIVER: tissue Liver; for A/G / ALP / ALT / AST / BUN / CRE / Ca / Cl / DBIL / GLC / IP / K / LDH / Na / PL / RALB / TBIL / TC / TG / TP / gamma-GTP: tissue Plasma

O=C(O)COc1nn(Cc2ccccc2)c2ccccc12 [BENDAZAC]
TERMINAL_BW (3 h): 211 g
APTT (3 h): 17.2 s
Bas (3 h): 0%
Eos (3 h): 0.8%
Fbg (3 h): 208.8 mg/dL
Hb (3 h): 13.6 g/dL
Ht (3 h): 40.7%
Lym (3 h): 77.2%
MCH (3 h): 21.7 pg
MCHC (3 h): 33.3%
MCV (3 h): 65.1 fL
Mono (3 h): 10.4%
Neu (3 h): 12%
PT (3 h): 11.2 s
Plat (3 h): 119 x10_4/uL
RBC (3 h): 625 x10_4/ul
Ret (3 h): 8.9%
WBC (3 h): 108.6 x10_2/uL
KIDNEY_L (3 h): 0.9 g
KIDNEY_R (3 h): 1 g
KIDNEY_TOTAL (3 h): 1.9 g
LIVER (3 h): 10 g
A/G (3 h): 2.2
ALP (3 h): 955 IU/L
ALT (3 h): 37.2 IU/L
AST (3 h): 65.8 IU/L
BUN (3 h): 12.4 mg/dL
CRE (3 h): 0.5 mg/dL
Ca (3 h): 10.9 mg/dL
Cl (3 h): 103.8 meq/L
DBIL (3 h): 0.008 mg/dL
GLC (3 h): 199.4 mg/dL
IP (3 h): 8.2 mg/dL
K (3 h): 4.5 meq/L
LDH (3 h): 89.4 IU/L
Na (3 h): 139.8 meq/L
PL (3 h): 145.4 mg/dL
RALB (3 h): 3.7 g/dL
TBIL (3 h): 0.3 mg/dL
TC (3 h): 81 mg/dL
TG (3 h): 67 mg/dL
TP (3 h): 5.4 g/dL
gamma-GTP (3 h): 1 IU/L
TERMINAL_BW (6 h): 209.6 g
APTT (6 h): 17.5 s
Bas (6 h): 0%
Eos (6 h): 0.8%
Fbg (6 h): 200.2 mg/dL
Hb (6 h): 13.9 g/dL
Ht (6 h): 41.5%
Lym (6 h): 77.2%
MCH (6 h): 21.6 pg
MCHC (6 h): 33.4%
MCV (6 h): 64.7 fL
Mono (6 h): 8.4%
Neu (6 h): 13.4%
PT (6 h): 11.7 s
Plat (6 h): 123 x10_4/uL
RBC (6 h): 642.4 x10_4/ul
Ret (6 h): 10%
WBC (6 h): 96.6 x10_2/uL
KIDNEY_L (6 h): 1 g
KIDNEY_R (6 h): 1 g
KIDNEY_TOTAL (6 h): 2 g
LIVER (6 h): 9.4 g
A/G (6 h): 2.2
ALP (6 h): 801.4 IU/L
ALT (6 h): 33.2 IU/L
AST (6 h): 59.8 IU/L
BUN (6 h): 11.6 mg/dL
CRE (6 h): 0.5 mg/dL
Ca (6 h): 10.7 mg/dL
Cl (6 h): 105.6 meq/L
DBIL (6 h): 0.054 mg/dL
GLC (6 h): 186.8 mg/dL
IP (6 h): 9.6 mg/dL
K (6 h): 4.8 meq/L
LDH (6 h): 75.2 IU/L
Na (6 h): 140.8 meq/L
PL (6 h): 135.6 mg/dL
RALB (6 h): 3.6 g/dL
TBIL (6 h): 0.5 mg/dL
TC (6 h): 72.6 mg/dL
TG (6 h): 75.8 mg/dL
TP (6 h): 5.2 g/dL
gamma-GTP (6 h): 2 IU/L
TERMINAL_BW (9 h): 211.9 g
APTT (9 h): 16.6 s
Bas (9 h): 0%
Eos (9 h): 1.2%
Fbg (9 h): 206.4 mg/dL
Hb (9 h): 13.5 g/dL
Ht (9 h): 40.3%
Lym (9 h): 76.8%
MCH (9 h): 22 pg
MCHC (9 h): 33.5%
MCV (9 h): 65.8 fL
Mono (9 h): 9.6%
Neu (9 h): 12.8%
PT (9 h): 11.8 s
Plat (9 h): 107.3 x10_4/uL
RBC (9 h): 613.4 x10_4/ul
Ret (9 h): 10.7%
WBC (9 h): 98.1 x10_2/uL
KIDNEY_L (9 h): 1 g
KIDNEY_R (9 h): 1 g
KIDNEY_TOTAL (9 h): 2 g
LIVER (9 h): 9 g
A/G (9 h): 2.1
ALP (9 h): 700.2 IU/L
ALT (9 h): 30 IU/L
AST (9 h): 64.4 IU/L
BUN (9 h): 10.8 mg/dL
CRE (9 h): 0.6 mg/dL
Ca (9 h): 10.6 mg/dL
Cl (9 h): 106 meq/L
DBIL (9 h): 0.056 mg/dL
GLC (9 h): 197.2 mg/dL
IP (9 h): 9.9 mg/dL
K (9 h): 4.6 meq/L
LDH (9 h): 75 IU/L
Na (9 h): 143 meq/L
PL (9 h): 134.4 mg/dL
RALB (9 h): 3.7 g/dL
TBIL (9 h): 0.4 mg/dL
TC (9 h): 73.4 mg/dL
TG (9 h): 44.2 mg/dL
TP (9 h): 5.5 g/dL
gamma-GTP (9 h): 1.8 IU/L
TERMINAL_BW (24 h): 229.7 g
APTT (24 h): 17 s
Bas (24 h): 0%
Eos (24 h): 1%
Fbg (24 h): 210.8 mg/dL
Hb (24 h): 13.5 g/dL
Ht (24 h): 39.7%
Lym (24 h): 77.2%
MCH (24 h): 22.2 pg
MCHC (24 h): 34%
MCV (24 h): 65.2 fL
Mono (24 h): 9.6%
Neu (24 h): 12.4%
PT (24 h): 12 s
Plat (24 h): 125.1 x10_4/uL
RBC (24 h): 609.6 x10_4/ul
Ret (24 h): 9.8%
WBC (24 h): 103.2 x10_2/uL
KIDNEY_L (24 h): 1 g
KIDNEY_R (24 h): 1 g
KIDNEY_TOTAL (24 h): 2 g
LIVER (24 h): 10.7 g
A/G (24 h): 2
ALP (24 h): 978 IU/L
ALT (24 h): 39.8 IU/L
AST (24 h): 67.2 IU/L
BUN (24 h): 17.8 mg/dL
CRE (24 h): 0.6 mg/dL
Ca (24 h): 11 mg/dL
Cl (24 h): 104.6 meq/L
DBIL (24 h): 0.006 mg/dL
GLC (24 h): 194.2 mg/dL
IP (24 h): 7.9 mg/dL
K (24 h): 4.8 meq/L
LDH (24 h): 80.6 IU/L
Na (24 h): 140.4 meq/L
PL (24 h): 144.6 mg/dL
RALB (24 h): 3.7 g/dL
TBIL (24 h): 0.3 mg/dL
TC (24 h): 77.2 mg/dL
TG (24 h): 102 mg/dL
TP (24 h): 5.6 g/dL
gamma-GTP (24 h): 1.2 IU/L
